Results from patent US9188584B2, “Capture agents and related compositions, methods and systems” (CALIFORNIA INSTITUTE OF TECHNOLOGY, priority 2008, dated 2015).
“And” between values parts separate entries of the source, which are not always exact repeats. Identical values can stand only once.

Legend:
bCAII = biological target: T1, bCAII (Bos taurus, UniProt P00921); assay: KD determination by surface plasmon resonance (SPR), immobilized bCAII; design: species or system bovine; details: binding affinity to bCAII by SPR, 1:1 binding fit
T1 construct: The bCAII (C2522), from bovine erythrocytes, lyophilized powder; purchased Sigma-Aldrich C2522; host or cells: bovine erythrocytes
Text: KD determination by surface plasmon resonance (SPR).

hCAII = hCAII (Homo sapiens, UniProt P00918); assay: biochemical
Description: KD determination by surface plasmon resonance (SPR). […] One flow cell of the biosensor surface (BIACORE CM5) was immobilized with bCAII following standard procedures using 0.25 mg/mL bCAII prepared in 10 mM sodium acetate (pH 5.0) buffer and a 1:1 solution of 0.1 mM NHS and 0.4 mM EDC (Papalia, G. A. et al., 2006). Similarly, a second flow cell was immobilized with hCAII following standard procedures using 0.25 mg/mL hCAII prepared in 10 mM sodium acetate (pH 5.5) buffer (Svedhem, S. et al., 2001). Immobilization levels of ˜4000 RU were achieved using a flow rate of 100 μL/min over 420 s. The remaining two flow cells were left underivatized, to correct for changes in bulk refractive index and to assess nonspecific binding. The running buffer was prepared to contain 10 mM HEPES+150 mM NaCl+0.05% Tween20+3% DMSO, and this buffer was used for all experiments. Prior to the peptide analyte experiment, 8 buffer-alone cycles were completed to establish baseline stabilization. Biligand samples were injected in a concentration series (5 μM to 2 nM) at 100 μL/min flow rate for 120-180 s across the four flow cells. Following background subtraction, the analyte response data was fitted for 1:1 binding affinity using the BiaEvaluation software. […]

b(h)CAII = assay: Dot blot selectivity/sensitivity assay in porcine serum; format: binding; details: 0.1% serum
Description: Dot blots are a common method for detecting proteins. […] For a dot blot, the solution containing the protein of interest is simply dotted onto an absorbent membrane material (typically nitrocellulose). The capture agent (typically an antibody) is labeled with biotin molecule, and applied to the same spot. The spot is rinsed, and then horseradish peroxidase (HRP)-labeled streptavidin is added, binding to the biotin that is bound to the protein. Optical methods are typically utilized to detect this binding. For these tests, Biotin-PEG-NovaTag resin (0.48 mmol/g; Novabiochem) was utilized for bulk synthesis of C-terminal biotin-labeled multi-ligands. After resin cleavage, the crude biotinylated multi-ligand was precipitated with ether and then purified to >98% by C18 reversed phase HPLC. For a dot blot assay, the procedure was as follows: b(h)CAII antigens were prepared as 1 mg/mL stocks in PBS (pH 7.4). A dilution series of antigen was applied to a nitrocellulose membrane, typically ranging from 2 μg to 0.5 ng per spot. […] The membrane was then washed with TBS. […] After washing with TBS for 1 h, 1:3000 Streptavidin-HRP (Abcam, Cambridge, Mass.) prepared in 0.5% milk/TBS was added to the membrane and incubated for 1 h. […]

T1 sequence (P00921 whole entry): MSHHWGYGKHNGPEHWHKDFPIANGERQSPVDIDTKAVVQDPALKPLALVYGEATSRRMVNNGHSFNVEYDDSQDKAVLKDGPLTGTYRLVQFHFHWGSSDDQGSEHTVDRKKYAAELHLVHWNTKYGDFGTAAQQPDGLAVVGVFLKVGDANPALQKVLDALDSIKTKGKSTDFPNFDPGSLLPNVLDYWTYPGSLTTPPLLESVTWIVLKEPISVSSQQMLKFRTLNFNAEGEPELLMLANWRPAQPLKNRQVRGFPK

CC[C@@H](C)[C@@H](NC(=O)[C@@H](CC(C)C)NC(=O)[C@@H](CC(N)=O)NC(=O)C(N)CCCCn1cc(C[C@@H](NC(C)=O)C(=O)N[C@H](CCCCN)C(=O)N[C@H](Cc2c[nH]c3ccccc23)C(=O)N[C@H](CC(C)C)C(=O)N[C@H](Cc2c[nH]c3ccccc23)C(=O)NCC(=O)N[C@H](CC(C)C)C(=O)N[C@H](Cc2cn(CCCCC(NC(C)=O)C(=O)N[C@H](CCCCN)C(=O)N[C@H](Cc3ccccc3)C(=O)N[C@H](Cc3c[nH]c4ccccc34)C(=O)N[C@H](CC(C)C)C(=O)N[C@H](CCCCN)C(=O)N[C@H](CC(C)C)C(=O)O)nn2)C(=O)N2CCCCC2)nn1)C(=O)N[C@@H](C(=O)N[C@H](Cc1ccccc1)C(=O)N[C@H](CCCNC(=N)N)C(N)=O)C(C)C (stereo partly drawn) [rfviln-Tz2-kwlwGl-Tz1-kfwlkl]
Kd (bCAII): 60 nM and 64 nM
Kd (hCAII): 45 nM

(D-Pra)-kwlwGl-Tz1-kfwlkl
reduction of dot blot sensitivity relative to triligand (b(h)CAII): > 10 fold
